The target in the assay is GABAA receptor. Nature of the assay: Steroid inhibition of [35S]-TBPS binding, rat brain cortical membranes. The following applies: 3 nM [35S]-TBPS, in the presence of 5 mM GABA. The method, boiled down: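 In the presence of […], compounds (DMSO 0.5% final) competed with 3 nM [35S]-TBPS for Sprague-Dawley rat cortical membranes, pH 7.4 phosphate buffer, 90 min, room temperature. Filtration and scintillation counting; specific binding defined by […]; IC50 and maximal inhibition fitted per experiment, averaged as mean ± SEM.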

The record followed here is patent publication US20250236639A1, “NEUROACTIVE STEROIDS AND COMPOSITIONS THEREOF” (Sage Therapeutics, Inc., priority 2019, published 2025).

pIC50: −log10 of the molar value.

By pIC50 is commonly meant the negative decadic logarithm of the IC50, by convention in mol/L.

Regarding `CC[C@H]1C[C@H]2[C@H](CC[C@@H]3[C@@H]2CC[C@@]2(C)[C@H]3CC[C@@H]2[C@](C)(O)Cn2cc(C#N)cn2)C[C@]1(C)O` [Compound 34, 1-((S)-2-((2S,3S,5R,8R,9R,10S,13S,14S,17S)-2-ethyl-3-hydroxy-3,13-dimethylhexadecahydro-1H-cyclopenta[a]phenanthren-17-yl)-2-hydroxypropyl)-1H-pyrazole-4-carbonitrile], the pIC50 is above 7.00.
For `COC[C@@]1(O)CC[C@H]2[C@H](CC[C@@H]3[C@@H]2CC[C@]2(C)[C@@H](C(C)(Cn4cc(C#N)cn4)OC)CC[C@@H]32)C1` (stereo in doubt) [Compound 33, 1-[(2S)-2-[(1S,3aS,3bR,5aR,7R,9aS,9bR,11aS)-7-hydroxy-7-(methoxymethyl)-11a-methyl-hexadecahydro-1H-cyclopenta[a]phenanthren-1-yl]-2-methoxypropyl]-1H-pyrazole-4-carbonitrile] the value was 6.00 to 7.00; for `CCOC[C@@]1(O)CC[C@@]2(C)[C@H](CC[C@@H]3[C@@H]2CC[C@@]2(C)[C@H]3CC[C@@H]2[C@](C)(O)Cn2cc(C#N)cn2)C1` [Compound 24, 1-((S)-2-((3R,5R,8R,9S,10S,13S,14S,17S)-3-(ethoxymethyl)-3-hydroxy-10,13-dimethylhexadecahydro-1H-cyclopenta[a]phenanthren-17-yl)-2-hydroxypropyl)-1H-pyrazole-4-carbonitrile], above 7.00.
`C[C@@H]1C[C@H]2[C@H](CC[C@@H]3[C@@H]2CC[C@@]2(C)[C@H]3CC[C@@H]2[C@@](C)(O)Cn2cc(C#N)cn2)C[C@]1(C)O` [Compound 53, 1-((R)-2-hydroxy-2-((2R,3S,5R,8R,9R,10S,13S,14S,17S)-3-hydroxy-2,3,13-trimethylhexadecahydro-1H-cyclopenta[a]phenanthren-17-yl)propyl)-1H-pyrazole-4-carbonitrile]: the pIC50 is 6.00 to 7.00.
To `COC[C@@H]1C[C@H]2[C@H](CC[C@@H]3[C@@H]2CC[C@@]2(C)[C@H]3CC[C@@H]2[C@](C)(O)Cn2cc(C#N)cn2)C[C@]1(C)O` [Compound 58A, 1-((S)-2-hydroxy-2-((2S,3S,5R,8R,9R,10S,13S,14S,17S)-3-hydroxy-2-(methoxymethyl)-3,13-dimethylhexadecahydro-1H-cyclopenta[a]phenanthren-17-yl)propyl)-1H-pyrazole-4-carbonitrile] belongs above 7.00; to `CC[C@]12CC[C@](O)(COC)C[C@H]1CC[C@H]1[C@@H]3CC[C@H]([C@](C)(O)Cn4cc(C#N)cn4)[C@@]3(C)CC[C@@H]12` [Compound 42, 1-((S)-2-((3R,5R,8S,9S,10S,13S,14S,17S)-10-ethyl-3-hydroxy-3-(methoxymethyl)-13-methylhexadecahydro-1H-cyclopenta[a]phenanthren-17-yl)-2-hydroxypropyl)-1H-pyrazole-4-carbonitrile], above 7.00.
For `CCOC[C@@]1(O)CC[C@@]2(C)[C@H](CC[C@@H]3[C@@H]2CC[C@@]2(C)[C@H]3CC[C@@H]2[C@@](C)(O)Cn2cc(C#N)cn2)C1` [Compound 25, 1-((R)-2-((3R,5R,8R,9S,10S,13S,14S,17S)-3-(ethoxymethyl)-3-hydroxy-10,13-dimethylhexadecahydro-1H-cyclopenta[a]phenanthren-17-yl)-2-hydroxypropyl)-1H-pyrazole-4-carbonitrile] the value was 6.00 to 7.00.
